One experiment concerns Snca mRNA. Briefly: Snca mRNA in rat primary cortical neurons. It counts as cell-based. The following applies: metaproterenol 5 μM, clenbuterol 20 μM, salbutamol 10 μM, 48 hours. How it is done: Primary cortical cultures were generated from E18 Sprague-Dawley rat embryos. The cortical region was dissected out in Hank's Balanced Salt Solution buffered with Hepes and dissociated with 0.125% trypsin (Invitrogen) for 17 min at 37 ° C., followed by trituration. Dissociated cells were plated at a density of 5×10^5 cells/well or 2.5×10^5 cells/well in 12-well or 24-well plates, respectively precoated with poly-D lysine (100 μg/mL). The cells were cultured in Neurobasal medium with B-27 supplement (Invitrogen) and glutamax and gentamycin. Half of the medium was changed every 4 days. Cortical neurons were treated with β2AR agonists 10 days post plating. They were then harvested 48 hours post-treatment for mRNA extraction and 72 hours post-treatment for protein extraction.
Total RNA from flash-frozen mice brain tissue, rodent primary cells, human neuroblastoma cells and iPSC-derived neuronal cells was isolated using TRIzol® (Life Technologies) following the manufacturer's protocol. RNA concentration was measured using NanoDrop spectrophotometer (Thermo Fisher Scientific, Wilmington, De.). 2 μg of total RNA was reverse transcribed into cDNA using the High Capacity cDNA Reverse Transcription Kit from Applied Biosystems. Quantitative PCR was performed using TaqMan Universal PCR Master Mix (Applied Biosystems) on an ABI 7900HT instrument (Applied Biosystems) as described previously (31). For mouse brain tissue and rat primary cortical neuron samples, rodent-specific TaqMan Assay on-demand primers and probes were used to assay the relative abundance of target genes, and rodent Rp113 was used as a reference gene to normalize for RNA loading. Similar results were obtained when Actb or Ubc were used as controls for input RNA. For human neuroblastoma and iPSC-derived neuron samples, human TaqMan Assay on-demand probes were used to assay the relative abundance of target genes, and the geometric mean of the three human reference genes RPL13, GUSB and UBC was used to normalize for RNA loading. Expression values were analyzed using the comparative threshold cycle method (31).

Another experiment has as its system Parkinson's disease. Briefly: Norwegian Prescription Database analysis of incident Parkinson's disease. It counts as in vivo, human. The source says: We included the entire population of Norway alive on 1 Jan. 2004 by linking the Norwegian National Registry (NNR) with the Norwegian Prescription Database (NorPD) using the unique national identification number. The NNR contains information on all residents in Norway, time of immigration, emigration and death. This information was further linked to the Norwegian National Education Database (NNED) to assess level of education of all participants.
This registry contains complete information on all prescribed drugs dispensed at pharmacies to individuals since 2004. Each prescription includes the national identification number, which makes it possible to generate a precise chronological prescription record for individuals over time, and to link this information to other registries. Drugs are classified according to the Anatomical Therapeutic Chemical classification and doses are reported as defined daily dose (DDD). If the national insurance scheme covers the cost of the drug, the prescription also contains the diagnosis the drug was prescribed for (from 2008: ICD-10 and ICPC; before 2008: local diagnostic code).
The first year of prescription of any antiparkinson drug (N04) was considered year of onset of PD. We used the year 2004 as a washout-period to only include incident cases.
To further limit the chance of reverse causality, we only included users who had been prescribed at least 365 DDD or more of propranolol.
The level of education was categorized into primary education, secondary education, undergraduate education or graduate education. Age at study start was categorized in 5 years intervals. […] Outcome was PD as defined above at time of first prescription of an antiparkinson drug. Participants not developing PD were censored at end of follow-up (31 Dec. 2014), at date of death or date of emigration out of Norway, whichever occurred first. To test for dose-response effects, we categorized participants according to the cumulative number of DDD in 2004-2007 and estimated the RR of developing PD in 2008-2014. […] The hazard ratios were interpreted as rate ratios.

The subject of experiment [1] is H3K27 acetylation of SNCA promoter and enhancers. The experiment is described as follows: chromatin immunoprecipitation for H3K27ac at SNCA promoter and enhancers in SK-N-MC cells. Type of experiment: cell-based, human. As to conditions: clenbuterol 10 μM, valproic acid 100 μM, propranolol 100 μM, vs vehicle. The procedure: Chromatin immunoprecipitation (ChIP) assays were performed using the Simple ChIP Enzymatic Chromatin IP kit protocol as recommended by the manufacturer (Cell Signaling Technology) with slight modifications. Briefly, ChIPs were performed on asynchronously growing SK-N-MC cells treated with clenbuterol (10 μM), valproic acid (100 μM) or propranolol (100 μM). Cross-linking was carried out with 1% formaldehyde for 10 min at room temperature. Cross-linking was subsequently quenched by adding glycine to a final concentration of 1× for 5 min. Cells were collected and washed twice with PBS, then resuspended in 2 mL of lysis buffer (as described in the protocol). After 10 min on ice, cells were treated with micrococcal nuclease and then sonicated to obtain DNA fragments of ˜500 bp as determined by agarose gel electrophoresis with ethidium bromide staining. Protein-DNA complexes were isolated by centrifugation at 10,000 rpm for 10 min. Supernatants with protein-DNA complexes were incubated overnight with rabbit polyclonal antibody directed against acetylated H3K27 (Abcam). Normal rabbit IgG was used as a negative control and Histone H3 rabbit mAb (ChIP formulated) as positive control. 2% of sample was saved as input. Antibody-protein-DNA complexes were further incubated for 2 hours with 30 μl of ChIP-grade Protein G magnetic beads to isolate antibody bound fractions of chromatin. Immuno-complexes were washed with the buffers provided and as described in the kit. Protein-DNA complexes were eluted and cross-links of pull down fractions and inputs (2% of total IP fraction) were reversed by 2 hours incubation in Proteinase K and 5 M NaCl at 65° C. […] 2 μl of immunoprecipitated DNA was analyzed by qPCR using a Power SYBR Green PCR Master mix (Applied Biosystems by Life technologies) on an ABI 7900HT instrument (Applied Biosystems) with the following temperature profile: 3 min of enzyme activation at 95° C. followed by 40 cycles of 95° C. for 15 s and 60° C. for 60 s. Sample from three independent immunoprecipitation assays were analyzed.

In the case of `CC(C)(C)NCC(O)c1ccc(O)c(CO)c1` (stereo not drawn) [Salbutamol, salbutamol], the “endogenous Snca mRNA” value in the experiment with Snca mRNA is given as “significantly, but modestly, reduced”. The “Rate ratio (RR) for Parkinson's disease during 2008-2014, multivariate adjusted” value was 0.45 (0.31-0.67) with Parkinson's disease (High (≥180 DDD) prescribed during 2004-2007, vs never user) and 0.60 (0.40-0.91) in the experiment with Parkinson's disease (Medium (60-180 DDD) prescribed during 2004-2007, vs never user).

Turning to `CC(C)(C)NCC(O)c1cc(Cl)c(N)c(Cl)c1` (stereo not drawn) [clenbuterol], the “H3K27 acetylation across SNCA promoter and two intronic enhancers (ChIP)” value in experiment [1] is listed as “reduced H3K27 acetylation”. In addition, the “endogenous Snca mRNA” value in the experiment with Snca mRNA is “significantly, but modestly, reduced”.

Take `CC(C)NCC(O)COc1cccc2ccccc12` (stereo not drawn) [Propranolol, propranolol]: the “H3K27 acetylation across SNCA promoter and two intronic enhancers (ChIP)” value in experiment [1] is “increased H3K27Ac”. Also, the “Rate ratio (RR) for Parkinson's disease, age-, sex-adjusted” value with Parkinson's disease (ever user vs never user, 11 year follow-up of the entire population of Norway, propranolol: at least 365 defined daily doses) is 2.16. Further, the “Rate ratio (RR) for Parkinson's disease, multivariate adjusted” value in the experiment on Parkinson's disease (ever user vs never user, 11 year follow-up, adjusted for age, sex and level of education, propranolol: at least 365 defined daily doses) worked out at 2.20. Moreover, the “Rate ratio for Parkinson's disease with time lag between first exposure and PD onset” value in the experiment with Parkinson's disease (time lags of one and two years, only cardiovascular diagnoses) was 1.82.

The values above are taken from US20210308077A1, “COMBINATIONS INCLUDING BETA-ADRENORECEPTOR AGONISTS FOR TREATMENT OF PARKINSON`S DISEASE AND MOVEMENT DISORDERS” (The Brigham and Women`s Hospital, Inc., priority 2017, published 2021).
